{"source": "patent US6548499B1", "about": "“Substituted quinoxaline derivatives as interleukin-8 receptor antagonists” (Millennium Pharmaceuticals, Inc., priority 1998, dated 2003)"}
{"tested_on": "not given", "assay": "not given", "details": "not given"}
{"molecule": "CN(C)C1CCC(Nc2nc3cc(Cl)c(Cl)cc3nc2-c2ccccn2)CC1.Cl", "note": "(stereo not drawn)", "melting point": "180 to 182 °C"}
{"molecule": "Cl.N[C@H]1CC[C@H](Nc2nc3cc(Cl)c(Cl)cc3nc2-c2ccccn2)CC1", "melting point": "280 to 282 °C (dec.)"}
{"molecule": "Cl.Clc1cc2nc(-c3ccccn3)c(N3CCC(N4CCCCC4)CC3)nc2cc1Cl", "melting point": "275 to 277 °C (dec.)"}
{"molecule": "c1ccc(-c2nc3ccccc3nc2NC2CN3CCC2CC3)nc1", "note": "(stereo not drawn)", "melting point": "63 to 65 °C"}
{"molecule": "CCN(CC)CCCCNc1nc2cc(Cl)c(Cl)cc2nc1-c1cc2ccccc2[nH]1.Cl", "melting point": "145 to 147 °C"}
{"molecule": "CCN(CC)CCCCNc1nc2cc(Cl)c(Cl)cc2nc1-c1ccc(Cl)s1.Cl", "melting point": "98 to 100 °C"}
{"molecule": "CCCc1ccc(-c2nc3cc(Cl)c(Cl)cc3nc2NCCCCN(CC)CC)s1.Cl", "melting point": "165 to 167 °C"}
{"molecule": "CCN(CC)CCCCNc1nc2cc(Cl)c(Cl)cc2nc1-c1cc2ccccc2o1.Cl", "melting point": "220 °C"}
{"molecule": "CCN(CC)CCCCNc1nc2cc(Cl)c(Cl)cc2nc1-c1cccc2c1sc1ccccc12.Cl", "melting point": "134 to 136 °C"}
{"molecule": "c1ccc(-c2nc3ccccc3nc2NCCCn2ccnc2)nc1", "note": "[Example 3, N-[3-(1H-Imidazol-1-yl)propyl]-3-(2-pyridinyl)-2-quinoxalinamine]", "melting point": "85 to 86 °C"}
{"molecule": "CN1CCCC1CCNc1nc2ccccc2nc1-c1ccccn1", "note": "(stereo not drawn) [Example 4, N-[2-(1-Methyl-2-pyrrolidinyl)ethyl]-3-(2-pyridinyl)-2-quinoxalinamine]", "melting point": "186 to 188 °C"}
{"molecule": "c1ccc(-c2nc3ccccc3nc2Nc2ccc(N3CCOCC3)cc2)nc1", "note": "[Example 6, N-[4-(4-Morpholinyl)phenyl]-3-(2-pyridinyl)-2-quinoxalinamine]", "melting point": "205 to 206 °C"}
{"molecule": "c1ccc(-c2nc3ccccc3nc2NCc2ccncc2)nc1", "note": "[Example 7, N-(4-Pyridinylmethyl)-3-(2-pyridinyl)-2-quinoxalinamine]", "melting point": "142 to 144 °C"}
{"molecule": "CN(C)c1ccc(Nc2nc3ccccc3nc2-c2ccccn2)cc1", "note": "[Example 8, N-[4-(Dimethylamino)phenyl]-3-(2-pyridinyl)-2-quinoxalinamine]", "melting point": "169 to 170 °C"}
{"molecule": "CC(=O)N(C)c1ccc(Nc2nc3ccccc3nc2-c2ccccn2)cc1", "note": "[Example 9, N-Methyl-N-[4-[[3-(2-pyridinyl)-2-quinoxalinyl]amino]phenyl]-acetamide]", "melting point": "165 to 166 °C"}
{"molecule": "CCN(CC)Cc1ccc(Nc2nc3cc(Cl)c(Cl)cc3nc2-c2ccccn2)cc1", "note": "[Example 13, (6,7-Dichloro-3-pyridin-2-yl-quinoxalin-2-yl)-(4-diethylaminomethyl-phenyl)-amine]", "melting point": "250 to 252 °C (dec.)"}
{"molecule": "CN(C)CCCCNc1nc2cc(F)c(F)cc2nc1-c1cccs1", "note": "[Example 17, N′-(6,7-Difluoro-3-thiophen-2-yl-quinoxalin-2-yl)-N,N-dimethyl-butane-1,4-diamine]", "melting point": "175 to 177 °C"}
{"tested_on": "human neutrophils", "assay": "IL-8 calcium flux assay", "assay_type": "cell-based", "details": "@ 11 μM; human neutrophils stimulated with human IL-8", "protocol": "Compounds of Formula I and II were evaluated for their effect on calcium flux using methodology known in the art, e.g., Neote K., DiGregorio D., Mak J. Y., Horuk R., and Schall T. J., “Molecular cloning, functional expression, and signaling characteristics of a C—C chemokine receptor,” Cell, 1993;72:415.\nBriefly, human neutrophils were incubated with the fluorescence dye FLUO-3 for 1 hour. The cells were washed after this loading period, resuspended in HANKs buffer, and loaded into a 96-well plate. Compound was added to each well. After a 2-minute incubation period, the cells were stimulated with human IL-8 and the calcium flux response recorded and quantified.", "units": {"IL-8 Ca+2 Flux % Inhibition (μM)": "% @ 11"}}
{"molecule": "6-Chloro-N-[4-(dimethylamino)cyclohexyl]-3-(2-pyridinyl)-2-quinoxalinamine and 7-Chloro-N-[4-(dimethylamino)cyclohexyl]-3-(2-pyridinyl)-2-quinoxalinamine, Dihydrochloride, Hydrate [Example 1]", "IL-8 Ca+2 Flux % Inhibition (μM)": 34}
{"tested_on": "human neutrophils", "assay": "IL-8 chemotaxis assay", "assay_type": "cell-based", "details": "Neutrophil, 0.5 h; freshly isolated human neutrophils, rhIL-8 as chemoattractant, 30 minutes at 37° C.", "protocol": "(§1) Compounds of Formula I and II were evaluated for their effect on chemotaxis using methodology known in the art, e.g., Carr M. W., Roth S. J., Luther E., Rose S. S., and Springer T. A., “Monocyte chemoattractant protein 1 acts as a T-lymphocyte chemoattractant.” Proc. Natl. Acad Sci. USA, 1994;91:3652; Qin S., Larosa G., Campbell J. J. et al., “Expression of MCP-1 and IL-8 receptors on subset on T-cells, and correlation with transendothelial chemotactic potential,” Eur. J. Immu., 1996;26:640.\n(§2) Briefly, freshly isolated human neutrophils were resuspended in chemotaxis buffer, which is made of one part of RPMI 1640 medium, one part of Medium 199, and 0.5% BSA. The cells were incubated with or without compounds for 5 minutes. Similarly, rhIL-8 was incubated in a separate plate, then transferred into lower chambers of chemotaxis plate. Neutrophils were added onto the top chamber. The plates were incubated at 37° C. for 30 minutes. The top chamber was then removed and the plate frozen at −80° C. for 30 minutes. After thawing, migrated cells were stained with Cytoquant Cell Proliferation Assay Kit (Molecular Probes No. C-7026) and quantitated by reading the plate on a fluorescent plate reader.", "units": {"IC50": "µM"}}
{"molecule": "CN(C)CCCNc1nc2cc(Cl)c(Cl)cc2nc1-c1ccco1", "note": "[Example 14, N′-(6,7-Dichloro-3-furan-2-yl-quinoxalin-2-yl)-N,N-dimethyl-propane-1,3-diamine]", "IC50": 1.8}
{"molecule": "CN(C)CCCNc1nc2cc(Cl)c(Cl)cc2nc1-c1cccs1", "note": "[Example 15, N′-(6,7-Dichloro-3-thiophen-2-yl-quinoxalin-2-yl)-N,N-dimethyl-propane-1,3-diamine]", "IC50": 0.32}
{"molecule": "CCN(CC)CCCCNc1nc2cc(Cl)c(Cl)cc2nc1-c1cc2ccccc2s1", "note": "[Example 25, N′(3-Benzo[b]thiophen-2-yl-6,7-dichloro-quinoxalin-2-yl)-N,N-4-diethyl-butane-1,4-diamine]", "IC50": 0.31}
{"molecule": "CCN(CC)CCCCNc1nc2cc(Cl)c(Cl)cc2nc1-c1ccc(C)s1", "note": "[Example 28, N′-[6,7-Dichloro-3-(5-methyl-thiophen-2-yl)quinoxalin-2-yl]-N,N-diethyl-butane-1,4-diamine]", "IC50": 0.4}
{"molecule": "CCN(CC)CCCCNc1nc2cc(Cl)c(Cl)cc2nc1-c1ccc(-c2cccs2)s1", "note": "[Example 34, N′-(3-[2,2′]Bithiophenyl-5-yl-6,7-dichloro-quinoxalin-2-yl)-N,N-diethyl-butane-1,4-diamine]", "IC50": 0.08}
{"tested_on": "human neutrophils", "assay": "IL-8 chemotaxis assay", "assay_type": "cell-based", "details": "freshly isolated human neutrophils, rhIL-8 as chemoattractant, 30 minutes at 37° C.", "protocol": "as §1, §2", "units": {"IC50": "µM"}}
{"molecule": "6-Chloro-N-[4-(dimethylamino)cyclohexyl]-3-(2-pyridinyl)-2-quinoxalinamine and 7-Chloro-N-[4-(dimethylamino)cyclohexyl]-3-(2-pyridinyl)-2-quinoxalinamine, Dihydrochloride, Hydrate [Example 1]", "IC50": 0.89}
